# Test results from patent US20230063457A1, “DNA-PK INHIBITING COMPOUNDS” (Provincial Health Services Authority, priority 2019, published 2023).
# Experiments:
# [1] = target: DNA-PK kinase (Homo sapiens, UniProt P78527); test: Inhibition of DNA-PK kinase activity (ADP-Glo); assay type: biochemical; conditions: averaged values over all measurements on all batches; 150 μM ATP, 1 hour at 25° C.
# Protocol: Inhibition of DNA-PK Kinase Activity Assay buffer was 50 mM Hepes pH 7.5 containing 0.1 mg/ml BSA (albumin from bovine serum), 50 μM DTT (dithiothreitol), 20 mM MgCl2 and 10 μg/ml calf thymus DNA (activation buffer). Kinase reaction was carried out in OptiPlate 384 plates (PerkinElmer 6007299). All compounds tested were dissolved in dimethyl sulfoxide (DMSO) and further dilutions were made in assay buffer. Final DMSO concentration was 1% (v/v). Pre-incubation consisted of compound (1% DMSO in control and blank wells) and 24 ng/well DNA-PK kinase to allow the compounds to bind the enzyme (with buffer in the blank wells) for 15 minutes; after this time 150 μM Adenosine-5′-triphosphate (ATP) and 0.2 μg/μl DNA-PK substrate were added to commence the kinase reaction. Incubations were carried out for 1 hour at 25° C. Kinase activity was determined by using ADP-Glo™ reagent from Promega according to the manufacturer's instructions. The light generated was measured using a luminometer (EnVision, PerkinElmer). Signal obtained in the wells containing blank samples was subtracted from all other wells and IC50 values were determined by fitting a sigmoidal curve to % inhibition of control versus Log10 compound concentration.
# [2] = target: T1, Phospho-DNA-PK in FaDu Cells (Homo sapiens, UniProt P78527); test: Effect of compounds on phospho-DNA-PK in FaDu cells (MesoScale sandwich immunoassay); assay type: cell-based; conditions: 1 hour pre-incubation, 1 μg/ml Neocarzinostatin 2 hours, averaged values, read-out: MSD FaDu IC50
# T1 construct: host or cells: FaDu
# Protocol: Effect of Compounds on Phospho-DNA-PK in FaDu Cells
# All compounds tested were dissolved in DMSO and further dilutions were made in culture medium. Final DMSO concentration was 0.3% (v/v). The human FaDu cells (ATCC) were cultured in MEM medium supplemented with Glutamax and 10% fetal calf serum (PAA). Cells were routinely maintained at densities of 0.2×10^6 cells per ml at 37° C. in a humidified 5% CO2, 95% air atmosphere. Cells were passaged twice a week, splitting back to obtain the low density. Cells were seeded in 96 well plates (Corning 3904) at 1×10^6 cells per ml media in a volume of 50 μl per well. Seeded cells were incubated at 37° C. in a humidified 5% CO2, 95% air atmosphere for 24 hours. Compounds were added (25 μl) to the cells and pre-incubated for 1 hour. 1 μg/ml DNA-damaging agent Neocarzinostatin (NCS) was added (25 μl) to a final volume of 100 μl and incubated for 2 hours at 37° C. in a humidified 5% CO2, 95% air atmosphere. After this period of time plates were removed from the incubator and the 100 μl dilutions were removed from the wells gently, prior to the addition of 75 μl cold RIPA lysis buffer with protease and phosphatase inhibitors to achieve the cells lysis, followed by shaking on a plate shaker at 4° C. for 30 minutes. At the end of this incubation, lysate was assessed for phospho-DNA-PK levels by sandwich immune-assay carried out in anti-mouse antibody coated MesoScale plates. […] Signal obtained in the wells containing blank samples was subtracted from all other wells and IC50 values were determined by fitting a sigmoidal curve to % inhibition of control versus Logo compound concentration.
SMILES,IC50 [1] [nM],IC50 [2] [nM]
C[S+]([O-])[C@H]1CC[C@@H](Oc2nc(N3CCOCC3)cc3ncccc23)CC1 (mixture of isomers) [Example 83],169,–
"C[C@H]1CN(c2ncn[nH]2)CC[C@@H]1Oc1nc(N2CCOCC2)cc2ncccc12 (single isomer, unassigned) [Parent compound 158]",102,10000
"C[C@@H]1CN(c2ncn[nH]2)CC[C@@H]1Oc1nc(N2CCOCC2)cc2ncccc12 (single isomer, unassigned) [Parent compound 160]",493,–
NC(=O)[C@H]1CC[C@@H](Oc2nc(N3CCOCC3)cc3ncccc23)CC1 [Example 3],9,361
N#C[C@H]1CC[C@@H](Oc2nc(N3CCOCC3)cc3ncccc23)CC1 [Example 4],37,1830
Cc1noc([C@H]2CC[C@@H](Oc3nc(N4CCOCC4)cc4ncccc34)CC2)n1 [Example 5],21,1370
NC(=O)[C@H]1CC[C@@H](COc2nc(N3CCOCC3)cc3ncccc23)CC1 [Example 6],74,2010
c1cnc(NCCCCOc2nc(N3CCOCC3)cc3ncccc23)nc1 [Example 8],279,6660
c1cnc2cc(N3CCOCC3)nc(OC3CCCCC3)c2c1 [Example 9],468,–
CN(C)S(=O)(=O)n1ccnc1C1CCN(c2nc(N3CCOCC3)cc3ncccc23)CC1 [Example 14],73,4470
OCCC1CCN(c2nc(N3CCOCC3)cc3ncccc23)CC1 [Example 15],108,2150
CC(C)(C)OC(=O)N1CCN(c2nc(N3CCOCC3)cc3ncccc23)CC1 [Example 19],159,6560
CC(C)(C)OC(=O)NCCC1CCN(c2nc(N3CCOCC3)cc3ncccc23)CC1 [Example 30],369,–
c1cnc2cc(N3CCOCC3)nc(N3CCCCC3)c2c1 [Example 32],523,–
CC(C)(C)OC(=O)NCC1CCN(c2nc(N3CCOCC3)cc3ncccc23)CC1 [Example 33],532,–
CC(C)(C)OC(=O)N1CCC2CN(c3nc(N4CCOCC4)cc4ncccc34)CC21 (stereo not drawn) [Example 37],1300,–

SMILES,IC50 [1] [nM],IC50 [2] [nM]
CC(C)(C)OC(=O)N1CCC(Oc2nc(N3CCOCC3)cc3ncccc23)CC1 [Example 48],328,–
COc1ccc(COc2nc(N3CCOCC3)cc3ncccc23)cc1 [Example 53],242,–
C[C@H]1CN(c2cc3ncccc3c(O[C@H]3CC[C@@H](c4nc[nH]n4)CC3)n2)CCO1 [Example 68],48,–
c1cncc(C2CCCCN2c2nc(N3CCOCC3)cc3ncccc23)c1 (stereo not drawn) [Example 85],2030,–
c1cnc2cc(N3CCOCC3)nc(N3CCC(c4ncc[nH]4)CC3)c2c1 [Example 86],223,–
c1cnc2cc(N3CCOCC3)nc(OC3CCNCC3)c2c1 [Example 89],361,–
c1cnc2cc(N3CCOCC3)nc(N3CCNCC3)c2c1 [Example 95],5440,–
N#Cc1cc(Br)cnc1NCC1CCN(c2nc(N3CCOCC3)cc3ncccc23)CC1 [Example 125],504,–
O=S(=O)(NCC1CCN(c2nc(N3CCOCC3)cc3ncccc23)CC1)c1ccc(F)cc1 [Example 142],808,–
CC(=O)NCC1CCN(c2nc(N3CCOCC3)cc3ncccc23)CC1 [Parent compound 140],257,–
CS(=O)(=O)NCC1CCN(c2nc(N3CCOCC3)cc3ncccc23)CC1 [Parent compound 141],370,–
CN(C)CC1CCN(c2nc(N3CCOCC3)cc3ncccc23)CC1 [Parent compound 145],3440,–
NC(=O)N1CCC(Oc2nc(N3CCOCC3)cc3ncccc23)CC1 [Parent compound 147],340,–
CN(C)C(=O)N1CC(COc2nc(N3CCOCC3)cc3ncccc23)C1 [Parent compound 149],244,–
CC1CN(c2ncn[nH]2)CCC1Oc1nc(N2CCOCC2)cc2ncccc12 (stereo not drawn) [Parent compound 159],116,–
Oc1cnc2c(Cl)c(N3CCOCC3)nc(O[C@H]3CC[C@@H](n4ccnc4)CC3)c2c1 [Parent compound 172],242,–

# The remaining lines, values ahead:
IC50 [1] [nM],IC50 [2] [nM],SMILES
82,832,c1cnc(NC2CC3(CCN(c4nc(N5CCOCC5)cc5ncccc45)C3)C2)nc1 (mixture of isomers) [Example 1]
39,743,c1cnc(NCC2CCN(c3nc(N4CCOCC4)cc4ncccc34)CC2)nc1 [Example 2]
415,–,c1cnc(NCCCOc2nc(N3CCOCC3)cc3ncccc23)nc1 [Example 7]
50,3500,c1cnc(NCC2CCN(c3nc(N4CCOCC4)cc4ncccc34)C2)nc1 (stereo not drawn) [Example 11]
70,2550,c1cnc(N[C@H]2[C@@H]3CN(c4nc(N5CCOCC5)cc5ncccc45)C[C@@H]32)nc1 [Example 12]
71,2840,c1cnc(NC2CCC3CN(c4nc(N5CCOCC5)cc5ncccc45)CC32)nc1 (stereo not drawn) [Example 13]
139,18600,c1cnc(NC2CCN(c3nc(N4CCOCC4)cc4ncccc34)CC2)nc1 [Example 16]
148,4450,c1cnc(N2CCC3CN(c4nc(N5CCOCC5)cc5ncccc45)CC32)nc1 (stereo not drawn) [Example 17]
149,4640,c1cnc(NC2CCCN(c3nc(N4CCOCC4)cc4ncccc34)CC2)nc1 (stereo not drawn) [Example 18]
211,–,c1cnc(NCCC2CCCN(c3nc(N4CCOCC4)cc4ncccc34)C2)nc1 (stereo not drawn) [Example 23]
224,–,CC1(CNc2ncccn2)CCN(c2nc(N3CCOCC3)cc3ncccc23)C1 (stereo not drawn) [Example 25]
226,–,O=C(Nc1ncccn1)C1CCN(c2nc(N3CCOCC3)cc3ncccc23)CC1 [Example 26]
274,–,O=C(NC1CCN(c2nc(N3CCOCC3)cc3ncccc23)CC1)c1ncccn1 [Example 27]
342,–,c1cnc(N2CC3CN(c4nc(N5CCOCC5)cc5ncccc45)CC3C2)nc1 (stereo not drawn) [Example 28]
345,–,c1cnc(N2CCC23CCN(c2nc(N4CCOCC4)cc4ncccc24)C3)nc1 (stereo not drawn) [Example 29]
492,–,c1cnc(NC2CCCN(c3nc(N4CCOCC4)cc4ncccc34)C2)nc1 (stereo not drawn) [Example 31]

IC50 [1] [nM],IC50 [2] [nM],SMILES
588,–,c1cnc(N2CC3(CCN(c4nc(N5CCOCC5)cc5ncccc45)C3)C2)nc1 [Example 34]
720,–,c1cnc(N2CCC3(C2)CN(c2nc(N4CCOCC4)cc4ncccc24)C3)nc1 [Example 35]
949,–,c1cnc(NCC2CCCN(c3nc(N4CCOCC4)cc4ncccc34)C2)nc1 (stereo not drawn) [Example 36]
2260,–,c1cnc(CN2CCC3CN(c4nc(N5CCOCC5)cc5ncccc45)CC32)nc1 (stereo not drawn) [Example 42]
88,–,O=C(O)c1ccnc(NCC2CCN(c3nc(N4CCOCC4)cc4ncccc34)CC2)n1 [Example 110]
124,–,OCc1ccnc(NCC2CCN(c3nc(N4CCOCC4)cc4ncccc34)CC2)n1 [Example 116]
232,–,N#Cc1cnc(NCC2CCN(c3nc(N4CCOCC4)cc4ncccc34)CC2)nc1Cl [Example 123]
247,–,COc1nc(NCC2CCN(c3nc(N4CCOCC4)cc4ncccc34)CC2)ncc1Cl [Example 124]
676,–,CC(=O)Nc1ccnc(NCC2CCN(c3nc(N4CCOCC4)cc4ncccc34)CC2)n1 [Example 126]
155,–,Cc1ccnc(NCC2CCN(c3nc(N4CCOCC4)cc4ncccc34)CC2)c1 [Example 134]
178,–,Fc1cccnc1NCC1CCN(c2nc(N3CCOCC3)cc3ncccc23)CC1 [Example 135]
340,–,c1cnc2cc(N3CCOCC3)nc(N3CCC(CNc4ccncc4)CC3)c2c1 [Example 136]
457,–,COc1cccnc1NCC1CCN(c2nc(N3CCOCC3)cc3ncccc23)CC1 [Example 137]
501,–,c1ccc(NCC2CCN(c3nc(N4CCOCC4)cc4ncccc34)CC2)cc1 [Example 138]
126,–,Nc1ccnc(NCC2CCN(c3nc(N4CCOCC4)cc4ncccc34)CC2)n1 [Parent compound 139]
232,–,O=C(Nc1ncccn1)N1CCN(c2nc(N3CCOCC3)cc3ncccc23)CC1 [Parent compound 146]
